Assay results from patent US4166125A, “2-Oxo-phenylbutanoic acid derivatives” (Grelan Pharmaceutical Co., Ltd., priority 1977, dated 1979).

Key:
[1] = Acute toxicity (2) (oral administration); assay type: in vivo; settings: in vivo; rat, oral, 7 days
Method: (§1) After administration of the compound, the number of rats that died during 7 days was observed, and LD50 value was calculated on the basis of the mortality.

rats = experiment: Acute toxicity (2) (oral administration); assay type: in vivo; settings: rats
Method: as §1

[2] = system: gross behaviour of the rats; experiment: Gross behaviour (2) (oral administration); settings: oral, 500, 1000, 2000 and 4000 mg/Kg, 4 hours
Method: In 0.3% CMC-Na solution was suspended 2-oxo-3-[4-(1-oxo-2-isoindolinyl)phenyl]butanamide in at a concentration of 20%. The 20% CMC-Na suspension was administered orally to 3 male rats in each group (Sprague-Dawley strain) weighing 150 to 200 g. The dosage of the compound were 500, 1000, 2000 and 4000 mg/Kg. […] To rats of a control group was administered orally only 0.3% CMC-Na solution.

gastric mucosa [3] = experiment: Effect on gastric mucosa (2) (oral administration); assay type: in vivo, rat (Sprague-Dawley strain); settings: rats, 4 hours
Method: 4 Hours after the administration, the rat was sacrificed with ether, and its stomach was removed. The stomach was treated with 5% formalin for 3 minutes, and gastric mucosa was observed under a stereoscopic microscope. When gastric lesion in the mucosa was found, the number of the lesion in the mucosa was counted.

[4] = system: gross behaviour of the mice; experiment: Gross behaviour (1) (oral administration), Irwin's multi-dimensional observation; settings: oral, 500, 1000, 2000 and 4000 mg/Kg, 4 hours
Method: In 1% gum arabic solution was suspended 2-oxo-3-[4-(1-oxo-2-isoindolinyl)phenyl]butanamide at a concentration of 20%. […] The dosages of the compound were 500, 1000, 2000 and 4000 mg/Kg.
To mice of a control group was administered orally only 1% gum arabic solution.

carrageenin edema = experiment: Inhibitory effect on carrageenin edema (oral administration); assay type: in vivo, rat (Sprague-Dawley strain)
Method: Inhibitory effect on carrageenin edema.
The experiment was carried out according to a method conforming to Van Arman, C. […] One hour after the administration of the test compound, 0.1 ml of 1% carrageenin solution in physiological saline was injected subcutaneously into the plantar sarface of the right hind paws of the rats. One hour after injection of carrageenin, the volume of the injected paws was measured hourly for 4 hours. Inhibition percent to carrageenin edema (%)* was calculated in comparison with the volume of paws of rats of a control group, to which only 0.3% CMC-Na solution was orally administered. [formula]

gastric mucosa [5] = experiment: Effect on gastric mucosa (1) (oral administration); assay type: in vivo, mouse (ddY-strain); parameters: unit not given here; settings: mice, 4 hours
Method: 4 Hours after the administration, the mouse was sacrificed with ether, and its stomach was removed. The stomach was treated with 5% formalin for 3 minutes, and gastric mucosa was observed under a stereoscopic microscope. When gastric lesion in the mucosa was found, the length of each lesion was measured. Degree of gastric damage (i.e. GD50)* was calculated on the basis of the length of the lesion of each mouse.
Remark *: GD50 : The value corresponding to the relative frequency of 50% on the normal probability paper plotted the length of gastric lesions of each mouse.

mice = experiment: Acute toxicity (1) (oral administration); assay type: in vivo; settings: mice
Method: (§2) After administration of the compound, the number of mice that died during 7 days was observed, and LD50 value was calculated on the basis of the mortality.

[6] = Acute toxicity (1) (oral administration); assay type: in vivo; settings: in vivo; mouse, oral, 7 days
Method: as §2

[7] = system: writhing syndrome due to acetic acid; experiment: Analgesic activity, stretching method (oral administration); assay type: in vivo, mouse (ddY-strain)
Method: The experiment was carried out according to a method conforming to Koster R. et al [Federation Proceedings 18, 412, (1960)]. […] 30 Minutes after administration of the test compound, 0.6% acetic acid aqueous solution was injected intraperitoneally to the mice in an amount of 0.1 ml per 10 g of body weight of the mouse, and then frequency of writhing syndrome due to acetic acid was counted for 20 minutes. Inhibition percent to the writhing syndrome was calculated in comparison with frequency of writhing syndrome counted on mice of a control group, to which only 1% gum arabic solution was orally administered.

[8] = system: febrile body temperature (Brewer's yeast); experiment: Antipyretic activity (oral administration); assay type: in vivo, rat (Sprague-Dawley strain); settings: 250 mg/Kg oral
Method: Antipyretic activity (oral administration)
According to a method conforming to Winter, C. A. et al [The Journal of Pharmacology and Experimental Therapeutics 133, 117, (1961)], 20% Brewer's yeast suspension in physiological saline was injected subcutaneously to 5 male rats in each group (Sprague-Dawley strain) weighing 200 to 250 g in an amount of 1.0 ml per 100 g of body weight of the rat. After fasting for 18 hours, each test compound suspended in 1% gum arabic solution was administered orally to the rats in an amount of 1.0 ml per 100 g of body weight. Then, the rectal temperature of the rats was taken.

[9] = Stability on storage at 50° C. and humidity of 70% for 1 month; assay type: physicochemical; settings: among the compounds (I)
Method: For example, when the compounds (I) are kept at temperature of 50° C., and humidity of 70% for 1 month, no substantial change with respect to their appearances and values of quantitative analysis was observed, and no decomposition product was detected by thin-layer chromatography. Thus compounds (I) are prepared for administration in the form of pharmaceutical compositions according to conventional methods in the field of the art, and it is possible to prepare a pharmaceutical composition which comprises a therapeutically effective amount of at least one compound of the general formula (I) as an active ingredient, i.e. anti-inflammatory composition, in solid administration form (e.g. tablets, granules, powders, capsules, suppository), and liquid administration form (e.g. suspension, emulsion). In that case, as carrier, vehicle, solvent or dispersant, there may be used any of those which are known in the field of art. There may be exemplified water, starch, lactose, crystalline cellulose, magnesium stearate, hydroxypropyl cellulose, mannitol, carboxymethyl cellulose, glycol, ethanol, corn oil, peanut oil, castor oil, cacao butter, isocacao, polyoxyethylene stearate. […]

[10] = oral, 500, 1000, 2000 and 4000 mg/Kg, 7 days

With CC(C(=O)C(N)=O)c1ccc(N2Cc3ccccc3C2=O)cc1 (centres unmarked) [2-oxo-3-[4-(1-oxo-2-isoindolinyl)phenyl]butanamide] the LD50 at 168 h [1] was > 4000 mg/kg, the “Macroscopic observation of organs in head, thorax and abdominal cavity” value (rats; after 7 days) was “No abnormality was observed” and the Abnormal behaviour (rats; [10]) was “not observed”. For the same molecule, the Death (rats; [10]) was “not observed”, the “Inhibition to increase of body weight” value (rats; [10]) was “not observed” and the “Abnormal behaviour (depression to spontaneous activity, loss of righting reflex, tremor, convulsion, abnormal gait, loss of pinna reflex, loss of corneal reflex, abnormality of respiration)” value [2] was “not observed”. For the same molecule, the “Mean number of gastric lesion” value (gastric mucosa [3]; 50 mg/Kg oral) was 0, the “Mean number of gastric lesion” value (gastric mucosa [3]; 100 mg/Kg oral) was 0 and the “Mean number of gastric lesion” value (gastric mucosa [3]; 200 mg/Kg oral) was 0.3. The “Mean number of gastric lesion” value (gastric mucosa [3]; 400 mg/Kg oral) was 1.6, the “Mean number of gastric lesion” value (gastric mucosa [3]; 800 mg/Kg oral) was 0.4 and the “Abnormal behaviour (depression to spontaneous activity, loss of righting reflex, tremor, convulsion, abnormal gait, loss of pinna reflex, loss of corneal reflex, abnormality of respiration)” value [4] was “not observed”. For the same molecule, the “Inhibition to carrageenin edema” value (carrageenin edema; 12.5 mg/Kg oral, 3 hour after administration) was 29.2 ± 6.4%, the “Inhibition to carrageenin edema” value (carrageenin edema; 12.5 mg/Kg oral, 4 hour after administration) was 29.3 ± 4.4% and the “Inhibition to carrageenin edema” value (carrageenin edema; 25 mg/Kg oral, 3 hour after administration) was 29.2 ± 9.0%. The “Inhibition to carrageenin edema” value (carrageenin edema; 25 mg/Kg oral, 4 hour after administration) was 26.6 ± 8.2%, the “Inhibition to carrageenin edema” value (carrageenin edema; 50 mg/Kg oral, 3 hour after administration) was 35.6 ± 3.9% and the “Inhibition to carrageenin edema” value (carrageenin edema; 50 mg/Kg oral, 4 hour after administration) was 34.1 ± 1.2%. For the same molecule, the “Inhibition to carrageenin edema” value (carrageenin edema; 100 mg/Kg oral, 3 hour after administration) was 51.0 ± 8.6%, the “Inhibition to carrageenin edema” value (carrageenin edema; 100 mg/Kg oral, 4 hour after administration) was 42.8 ± 6.9% and the ED40 (carrageenin edema; Rattus norvegicus, oral, from inhibition percent to edema at 3 hours after administration, read-out: ED40) was 48 mg/kg. For the same molecule, the “Degree of gastric damage (GD50)” value (gastric mucosa [5]; 100 mg/Kg oral) was 1.0, the “Degree of gastric damage (GD50)” value (gastric mucosa [5]; 200 mg/Kg oral) was 7.0 and the “Degree of gastric damage (GD50)” value (gastric mucosa [5]; 400 mg/Kg oral) was 2.5. For the same molecule, the “Macroscopic observation of organs in head, thorax and abdominal cavity” value (mice; after 7 days) was “No abnormality was observed”, the Abnormal behaviour (mice; [10]) was “not observed” and the Death (mice; [10]) was “not observed”. For the same molecule, the “Inhibition to increase of body weight” value (mice; [10]) was “not observed”, the LD50 at 168 h [6] was > 4000 mg/kg and the “Inhibition to writhing syndrome” value ([7]; 100 mg/Kg oral) was 4%. For the same molecule, the “Inhibition to writhing syndrome” value ([7]; 200 mg/Kg oral) was 33%, the “Inhibition to writhing syndrome” value ([7]; 400 mg/Kg oral) was 62% and the “Dose-response of inhibition to writhing syndrome” value ([7]; dose range of 100 to 400 mg/Kg) was “clear dose-response”. For the same molecule, the “Drop of febrile body temperature” value [8] was 1 °C and the “Stability (in words)” value [9] was “more stable”.
